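A five-concentration, 48-hour dose response in 96-well plates underlies each endpoint, interpolated linearly between surrounding concentrations. GI50 is the concentration that inhibits growth by half. TGI marks complete inhibition of growth.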
Legend:
Experiment in all cases: inhibition of tumour cell growth, NCI panel, 48 h
SF-539 CNS = system: SF-539 CNS
MCF7 breast = system: MCF7 breast
SF-268 CNS = system: SF-268 CNS
NCI-H226 lung = system: NCI-H226 lung
SR leukemia = system: SR leukemia
HCT-15 colon = system: HCT-15 colon
UO-31 renal = system: UO-31 renal
SF-295 CNS = system: SF-295 CNS
BT-549 breast = system: BT-549 breast
HL-60(TB) leukemia = system: HL-60(TB) leukemia

Row | SMILES | GI50 (SF-539 CNS) | TGI (SF-539 CNS) | GI50 (MCF7 breast) | TGI (MCF7 breast) | GI50 (SF-268 CNS) | TGI (SF-268 CNS) | GI50 (NCI-H226 lung) | TGI (NCI-H226 lung) | GI50 (SR leukemia) | TGI (SR leukemia) | GI50 (HCT-15 colon) | TGI (HCT-15 colon) | GI50 (UO-31 renal) | TGI (UO-31 renal) | GI50 (SF-295 CNS) | TGI (SF-295 CNS) | GI50 (BT-549 breast) | TGI (BT-549 breast) | GI50 (HL-60(TB) leukemia) | TGI (HL-60(TB) leukemia)
1 | C=CCc1cc(Nc2c3ccc(Cl)cc3nc3ccc(OC)cc23)cc(CN(CC)CC)c1O | 2450 nM | 9.16 µM | 2.1 µM | 7.94 µM | 2900 nM | 16 µM | 1.15 µM | 10.8 µM | 362 nM | 3.47 µM | 2590 nM | 12 µM | 2020 nM | 11 µM | 938 nM | 5.17 µM | 1380 nM | 8.1 µM | – | –
2 | CCOC(=O)c1cc2c(cc1Cl)SC(=Nc1ccccc1)N(S(=O)(=O)c1ccc(Br)s1)S2(=O)=O | 14300 nM | 29.3 µM | 16.5 µM | 45.8 µM | 19200 nM | 46.5 µM | 16.2 µM | 35 µM | – | – | 13500 nM | 27.1 µM | 22100 nM | 53.9 µM | 21500 nM | 46.4 µM | 17300 nM | 34.8 µM | – | –
3 | O=C(Nc1ccccc1OC(=O)c1ccccc1)c1ccccc1 | 22800 nM | > 100 µM | 12.9 µM | > 100 µM | 3980 nM | > 100 µM | > 100 µM | > 100 µM | 3120 nM | > 100 µM | 4370 nM | > 100 µM | 13800 nM | > 100 µM | 2470 nM | 8.03 µM | – | – | – | –
4 | Oc1cccc2c1NCCC2 | 140 nM | > 47.3 µM | – | – | 244 nM | > 67.2 µM | 3.07 µM | 35.2 µM | – | – | 190 nM | > 100 µM | 75 nM | 13.5 µM | 139 nM | > 22.6 µM | 541 nM | > 100 µM | 194 nM | 7.84 µM
5 | C[CH2][Hg][S]c1ccccc1C(=O)O | 1700 nM | 3.32 µM | 1.21 µM | 2.62 µM | 1680 nM | 3.18 µM | – | – | 444 nM | 3.75 µM | 1070 nM | 2.52 µM | 1430 nM | 2.79 µM | 3700 nM | 16.5 µM | 1430 nM | 2.76 µM | 314 nM | 1.18 µM
6 | Cc1cccc(NC(=O)/C(=N\N)C(c2cnc3ccc([N+](=O)[O-])cc3n2)[N+](=O)[O-])c1C (stereo unspecified) | – | > 100 µM | – | – | – | > 100 µM | – | > 100 µM | – | > 100 µM | – | > 100 µM | – | > 100 µM | – | > 100 µM | – | – | – | > 100 µM
7 | Fc1cccc(F)c1C(Nc1nncs1)Nc1nncs1 | – | > 100 µM | – | > 100 µM | – | > 100 µM | – | > 100 µM | – | – | – | > 100 µM | – | > 100 µM | – | > 100 µM | – | > 100 µM | – | –
8 | COc1cc(C(=O)Nc2cc(O)c(CC=C(C)C)c(O)c2)cc2c1O[C@]1(C)CC[C@@H](O)C(C)(C)[C@H]1C2 | 39.1 nM | 1.51 µM | 0.256 µM | 15.4 µM | 1790 nM | 39.3 µM | 3.04 µM | 61.3 µM | 62.4 nM | > 100 µM | 1320 nM | 14.4 µM | 506 nM | 4.13 µM | 39.7 nM | 0.325 µM | 153 nM | 12.8 µM | – | –
9 | O=C(CN1N=C(c2ccc(F)cc2)CCC1=O)Nc1nc2ccccc2s1 | 1700 nM | 3.19 µM | 50.1 µM | > 100 µM | 5590 nM | > 35.9 µM | 69.7 µM | > 100 µM | – | – | 41600 nM | > 100 µM | 182 nM | 0.405 µM | > 100000 nM | > 100 µM | 4810 nM | – | 3680 nM | 19 µM
10 | COC(=O)C(C(=O)C(=O)Nc1ccc([N+](=O)[O-])cc1)c1nc2ccc([N+](=O)[O-])cc2[nH]c1=O (stereo unspecified) | – | > 100 µM | – | – | – | > 100 µM | – | > 100 µM | – | > 100 µM | – | > 100 µM | – | > 100 µM | – | > 100 µM | – | – | – | > 100 µM
11 | N#CCCNc1nonc1-c1nc2ccccc2n1CC(=O)c1ccc(NC(=O)[C@@H](N)CCCCN)cc1 | – | – | 0.0302 µM | > 100 µM | 71 nM | > 100 µM | – | > 100 µM | 25 nM | > 100 µM | 35.6 nM | > 100 µM | 282 nM | > 100 µM | 16 nM | > 100 µM | 31.1 nM | – | 31.7 nM | –
12 | C[n+]1c2ccccc2nc2c(N)cc(N)cc21 | 5410 nM | 32.2 µM | 5.1 µM | 37.3 µM | 712 nM | 13.6 µM | 8.41 µM | > 100 µM | – | – | 57600 nM | > 100 µM | 26200 nM | > 100 µM | 3600 nM | 31 µM | 2620 nM | 12.5 µM | 6390 nM | 35.8 µM

— PubChem BioAssay (NCI)
